# Measurements as given in patent US20140228286A1, “SPECIFIC PDE4B-INHIBITORS FOR THE TREATMENT OF DIABETES MELLITUS” (BOEHRINGER INGELHEIM INTERNATIONAL GMBH, priority 2013, published 2014).
# Target: T1, PDE4B (Homo sapiens, UniProt Q07343)
# T1 construct: active site fragment comprising the amino acids 152-484
# Assay: PDE4B Scintillation Proximity (SPA) Assay
# Type: biochemical
# Details: PDE4B active site fragment amino acids 152-484; [3H]cAMP; 30° C., one hour; read-out: Experimentally determined IC50-value for PDE4B inhibition
# Description: The IC50-values of the compounds of the invention (Examples 1.1 to 1.47) with respect to their PDE4B-inhibiting ability have been determined with a Scintillation Proximity (SPA) Assay (GE Healthcare, No. TRKQ7090). The Scintillation Proximity (SPA) Assay is based on the detection of the different affinities of the cyclic 3′-5′adenosine monophosphate (cAMP, low affinity) and the linear 5′-adenosine monophosphate (AMP, high affinity) to yttrium-silicate-scintillator beads. The cAMP-specific phosphodiesterase (PDE) PDE4B cleaves the 3′-phosphodiester bond of the tritium-labelled-[^3H]cAMP to the [^3H]5′-AMP. This [^3H]5′-AMP associates with the scintillator beads because of their higher affinity and causes scintillations (light flashes) which can be measured in a Wallac Microbeta Scintillation Counter.
# 10 μl of a [^3H]cAMP-solution (0.05 μCi in H2O, 10-30 Ci/mmol) are added to 89 μl of a PDE4B-enzyme-solution (active site fragment comprising the amino acids 152-484; 0.15-0.18 ng) in assay buffer (50 mM Tris HCl pH 7.5; 8.3 mM MgCl2; 1,7 mM ethylene glyclol tetraacetic acid (EGTA); 0.25 mg/ml bovine serum albumin (BSA)) and this mixture is incubated at 30° C. for one hour
# a) without the compound to be tested (in the presence of 1 μl dimethylsulfoxide (DMSO), corresponding to 1% DMSO) and b) in the presence of the compound to be tested in a concentration of 125 μM, 25 μM, 5 μM, 1 μM, 200 nM, 40 nM, 8 nM, 1.6 nM, 0.32 nM, 0.064 nM, 0.0128 nM (dilution series in 5er-steps beginning from 125 μM until 0.0128 nM, in the presence of 1% DMSO).
# After this incubation the reaction is stopped by the addition of 50 μl of bead-solution (500 mg beads/35 ml H2O, 18 mM zinc sulfate). In the following 45 minutes the beads have the opportunity to form a sediment. After that the scintillations are measured in the scintillation counter. If the tested compound is able to inhibit the enzymatic activity of the PDE4B-enzyme, less [^3H]AMP depending on the concentration of the tested compound is produced and less scintillations are measurable. […] The IC50-value stands for the compound concentration at which the PDE4B enzyme activity is inhibited to a half maximal value. Therefore the lower the IC50-value is the better is the PDE4B inhibition.
# T1 sequence (Q07343 324-656): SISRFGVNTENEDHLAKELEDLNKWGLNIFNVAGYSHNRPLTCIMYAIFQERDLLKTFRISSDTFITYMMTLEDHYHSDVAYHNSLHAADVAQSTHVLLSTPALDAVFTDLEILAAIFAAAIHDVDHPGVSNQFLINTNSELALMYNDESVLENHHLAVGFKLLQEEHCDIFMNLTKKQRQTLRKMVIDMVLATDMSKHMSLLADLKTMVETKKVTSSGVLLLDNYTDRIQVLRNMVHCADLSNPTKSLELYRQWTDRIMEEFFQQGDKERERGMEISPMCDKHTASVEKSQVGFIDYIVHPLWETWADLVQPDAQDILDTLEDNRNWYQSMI
row,SMILES,IC50 [nM]
1,"CN1C[C@@H](Nc2nc(N3CCC(Oc4ccc(F)cc4)CC3)nc3c2[S+]([O-])CC3)CCC1=O (stereo partly drawn) [Example 1.22, (S)-5-{2-[4-(4-fluorophenoxy)-piperidin-1-yl]-5-oxo-6,7-dihydro-5H-5λ4-thieno[3,2-d]pyrimidin-4-ylamino}-1-methylpiperidin-2-one]",2.3
2,"[O-][S+]1CCc2nc(N3CCC(Oc4ccc(C5=NCCO5)cc4)CC3)nc(NC3CCOCC3)c21 (stereo not drawn) [Example 1.23, (2-{4-[4-(4,5-dihydrooxazol-2-yl)-phenoxy]-piperidin-1-yl}-5-oxo-6,7-dihydro-5H-5λ^4-thieno[3,2-d]pyrimidin-4-yl)-(tetrahydropyran-4-yl)-amine]",1.7
3,"O=C(O)c1ccc(OC2CCN(c3nc4c(c(NC5CCOCC5)n3)[S+]([O-])CC4)CC2)cc1 (stereo not drawn) [Example 1.24, 4-{1-[5-oxo-4-(tetrahydropyran-4-ylamino)-6,7-dihydro-5H-5λ^4-thieno[3,2-d]pyrimidin-2-yl]-piperidin-4-yloxy}-benzoic acid]",7
4,"CC(C)(O)C1(Nc2nc(N3CCC(c4ccc(Cl)cc4)CC3)nc3c2[S+]([O-])CC3)CC1 (stereo not drawn) [Example 1.25, 2-(1-{2-[4-(4-chlorophenyl)-piperidin-1-yl]-5-oxo-6,7-dihydro-5H-5λ^4-thieno[3,2-d]pyrimidin-4-ylamino}-cyclopropyl)-propan-2-ol]",1.8
5,"Cn1cc(C2CCN(c3nc4c(c(NC5CCOCC5)n3)[S+]([O-])CC4)CC2)c2cc(C(C)(C)C)ccc21 (stereo not drawn) [Example 1.26, {2-[4-(5-tert-butyl-1-methyl-1H-indol-3-yl)-piperidin-1-yl]-5-oxo-6,7-dihydro-5H-5λ^4-thieno[3,2-d]pyrimidin-4-yl}-(tetrahydropyran-4-yl)-amine]",38
6,Cn1nc(C2CCN(c3nc4c(c(NC5CCOCC5)n3)[S+]([O-])CC4)CC2)cc1-c1ccco1 (stereo not drawn) [Example 1.27],21
7,"CN1C[C@@H](Nc2nc(N3CCC(Oc4ccc(C5=NCCO5)cc4)CC3)nc3c2[S+]([O-])CC3)CCC1=O (stereo partly drawn) [Example 1.28, (S)-5-(2-{4-[4-(4,5-dihydrooxazol-2-yl)-phenoxy]-piperidin-1-yl}-5-oxo-6,7-dihydro-5H-5λ^4-thieno[3,2-d]pyrimidin-4-ylamino)-1-methylpiperidin-2-one]",0.19
8,"Cn1nc(-c2ccco2)cc1C1CCN(c2nc3c(c(NC4CCOCC4)n2)[S+]([O-])CC3)CC1 (stereo not drawn) [Example 1.29, {2-[4-(5-furan-2-yl-2-methyl-2H-pyrazol-3-yl)-piperidin-1-yl]-5-oxo-6,7-dihydro-5H-5λ^4-thieno[3,2-d]pyrimidin-4-yl}-(tetrahydropyran-4-yl)-amine]",1.7
9,"Cn1c(C2CCN(c3nc4c(c(NC5CCOCC5)n3)[S+]([O-])CC4)CC2)nc2cnccc21 (stereo not drawn) [Example 1.30, {2-[4-(1-methyl-1H-imidazo[4,5-c]pyridin-2-yl)-piperidin-1-yl]-5-oxo-6,7-dihydro-5H-5λ^4-thieno[3,2-d]pyrimidin-4-yl}-(tetrahydropyran-4-yl)-amine]",33.4
10,"COCC(=O)NCC1(c2ccccc2)CCN(c2nc3c(c(NC4CCOCC4)n2)[S+]([O-])CC3)CC1 (stereo not drawn) [Example 1.31, 2-methoxy-N-{1-[5-oxo-4-(tetrahydropyran-4-ylamino)-6,7-dihydro-5H-5λ^4-thieno[3,2-d]pyrimidin-2-yl]-4-phenylpiperidin-4-ylmethyl}-acetamide]",5.7
11,"CN(C(=O)c1ccc(C2CCN(c3nc4c(c(NC5CCOCC5)n3)[S+]([O-])CC4)CC2)cc1)C1CC1 (stereo not drawn) [Example 1.32, N-cyclopropyl-N-methyl-4-{1-[5-oxo-4-(tetrahydropyran-4-ylamino)-6,7-dihydro-5H-5λ^4-thieno[3,2-d]pyrimidin-2-yl]-piperidin-4-yl}-benzamide]",8.5

# Other lines, results leading:
row,IC50 [nM],SMILES
1,7.5,"CN(C(=O)c1ccc(OC2CCN(c3nc4c(c(NC5CCOCC5)n3)[S+]([O-])CC4)CC2)cc1)C1CC1 (stereo not drawn) [Example 1.33, N-cyclopropyl-N-methyl-4-{1-[5-oxo-4-(tetrahydropyran-4-ylamino)-6,7-dihydro-5H-5λ^4-thieno[3,2-d]pyrimidin-2-yl]-piperidin-4-yloxy}-benzamide]"
2,8,"[O-][S+]1CCc2nc(N3CCC(Oc4ccncc4)CC3)nc(NC3CCOCC3)c21 (stereo not drawn) [Example 1.34, {5-oxo-2-[4-(pyridin-4-yloxy)-piperidin-1-yl]-6,7-dihydro-5H-5λ^4-thieno[3,2-d]pyrimidin-4-yl}-(tetrahydropyran-4-yl)-amine]"
3,0.4,"Cc1oc(C2CCN(c3nc4c(c(N[C@H]5CCC(=O)N(C)C5)n3)[S+]([O-])CC4)CC2)nc1-c1ccccc1 (stereo partly drawn) [Example 1.36, (S)-1-methyl-5-{2-[4-(5-methyl-4-phenyloxazol-2-yl)-piperidin-1-yl]-5-oxo-6,7-dihydro-5H-5λ^4-thieno[3,2-d]pyrimidin-4-ylamino}-piperidin-2-one]"
4,3.5,"Cc1oc(C2CCN(c3nc4c(c(NC5(CO)CC5)n3)[S+]([O-])CC4)CC2)nc1-c1ccccc1 (stereo not drawn) [Example 1.37, (1-{2-[4-(5-methyl-4-phenyloxazol-2-yl)-piperidin-1-yl]-5-oxo-6,7-dihydro-5H-5λ^4-thieno[3,2-d]pyrimidin-4-ylamino}-cyclopropyl)-methanol]"
5,0.2,"CN1C[C@@H](Nc2nc(N3CCC(c4nc(-c5ccccc5)c(-c5ccccc5)o4)CC3)nc3c2[S+]([O-])CC3)CCC1=O (stereo partly drawn) [Example 1.38, (S)-5-{2-[4-(4,5-diphenyloxazol-2-yl)-piperidin-1-yl]-5-oxo-6,7-dihydro-5H-5λ^4-thieno[3,2-d]pyrimidin-4-ylamino}-1-methylpiperidin-2-one]"
6,1.8,"[O-][S+]1CCc2nc(N3CCC(CO)(c4ccc(Cl)cc4)CC3)nc(NC3CCOCC3)c21 (stereo not drawn) [Example 1.39, {4-(4-chlorophenyl)-1-[5-oxo-4-(tetrahydropyran-4-ylamino)-6,7-dihydro-5H-5λ^4-thieno[3,2-d]pyrimidin-2-yl]-piperidin-4-yl}-methanol]"
7,0.6,"Cc1nc(C2CCN(c3nc4c(c(NC5(CO)CC5)n3)[S+]([O-])CC4)CC2)oc1-c1ccc(Cl)cc1 (stereo not drawn) [Example 1.40, [1-(2-{4-[5-(4-chlorophenyl)-4-methyloxazol-2-yl]-piperidin-1-yl}-5-oxo-6,7-dihydro-5H-5λ^4-thieno[3,2-d]pyrimidin-4-ylamino)-cyclopropyl]-methanol]"
8,6.7,"[O-][S+]1CCc2nc(N3CCC(O)(c4ccc(Cl)cc4)CC3)nc(NC3CCOCC3)c21 (stereo not drawn) [Example 1.41, 4-(4-chlorophenyl)-1-[5-oxo-4-(tetrahydropyran-4-ylamino)-6,7-dihydro-5H-5λ^4-thieno[3,2-d]pyrimidin-2-yl]-piperidin-4-ol]"
9,3.8,"COC1(c2ccc(Cl)cc2)CCN(c2nc3c(c(NC4CCOCC4)n2)[S+]([O-])CC3)CC1 (stereo not drawn) [Example 1.42, {2-[4-(4-chlorophenyl)-4-methoxypiperidin-1-yl]-5-oxo-6,7-dihydro-5H-5λ^4-thieno[3,2-d]pyrimidin-4-yl}-(tetrahydropyran-4-yl)-amine]"
10,3.5,"N#Cc1ccc(OC2CCN(c3nc4c(c(NC5(CO)CC5)n3)[S+]([O-])CC4)CC2)cc1 (stereo not drawn) [Example 1.43, 4-{1-[4-(1-hydroxymethylcyclopropylamino)-5-oxo-6,7-dihydro-5H-5λ^4-thieno[3,2-d]pyrimidin-2-yl]-piperidin-4-yloxy}-benzonitrile]"
11,2.7,[O-][S+]1CCc2nc(N3CCC(c4nc5c(o4)CCCC5)CC3)nc(NC3CCOCC3)c21 (stereo not drawn) [Example 1.44]
12,54,"CN1C[C@@H](Nc2nc(N3CCC(c4ccc(Cl)cc4)CC3)nc3c2S(=O)(=O)CC3)CCC1=O [Example 1.45, (S)-5-{2-[4-(4-chlorophenyl)-piperidin-1-yl]-5,5-dioxo-6,7-dihydro-5H-5λ^6-thieno[3,2-d]pyrimidin-4-ylamino}-1-methylpiperidin-2-one]"
13,4.3,"[O-][S+]1CCc2nc(N3CCC(c4ccc(Cl)cc4)CC3)nc(NC3(CO)CCC3)c21 (stereo not drawn) [Example 1.47, (1-{2-[4-(4-Chloro-phenyl)-piperidin-1-yl]-5-oxo-6,7-dihydro-5H-5λ^4-thieno[3.2-d]pyrimidin-4-yl-amino}-cyclobutyl)-methanol]"
